Among the data in PubChem BioAssay AID248 (DTP/NCI, 2004) are T/C values, retold here.

Several values for one entry are separate records, joined by “and”; a condition that tells them apart may be missing. Equal values may be shown once. Inconclusive results and toxic doses are left out.

For the assay, the system named is L1210 leukemia ip in BDF1 mice, survival T/C. Briefly: NCI In Vivo Anticancer Drug Screen. Data for tumor model L1210 Leukemia (intraperitoneal) in B6D2F1 (BDF1) mice. Particulars: endpoint: mean survival time, higher = longer survival. The method, boiled down: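 Ratio derived from survival: compound-dosed mice over vehicle-dosed mice, all bearing a transplantable tumor.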

[1] abbreviates: dose: 100.0 mg/kg/injection, schedule: Q01DX009 (ip), vehicle: Klucel (hydroxypropylcellulose) (HPC).
Where [2] appears, read: dose: 200.0 mg/kg/injection, schedule: Q01DX009 (ip), vehicle: Klucel (hydroxypropylcellulose) (HPC).
Where [3] appears, read: dose: 400.0 mg/kg/injection, schedule: Q01DX009 (ip), vehicle: Klucel (hydroxypropylcellulose) (HPC).
Setting [4] is: dose: 100.0 mg/kg/injection, schedule: Q01DX009 (sc), vehicle: olive oil, sesame oil, peanut oil.
Setting [5] is: dose: 100.0 mg/kg/injection, schedule: Q04DX003 (sc), vehicle: olive oil, sesame oil, peanut oil.
The mark [6] stands for this setting: dose: 200.0 mg/kg/injection, schedule: Q01DX009 (sc), vehicle: olive oil, sesame oil, peanut oil.
[7] abbreviates: dose: 200.0 mg/kg/injection, schedule: Q04DX003 (sc), vehicle: olive oil, sesame oil, peanut oil.
Setting [8] is: dose: 400.0 mg/kg/injection, schedule: Q01DX009 (sc), vehicle: olive oil, sesame oil, peanut oil.
Where [9] appears, read: dose: 400.0 mg/kg/injection, schedule: Q04DX003 (sc), vehicle: olive oil, sesame oil, peanut oil.
Where [10] appears, read: dose: 100.0 mg/kg/injection, schedule: Q01DX001 (ip), vehicle: saline.
The mark [11] stands for this setting: dose: 200.0 mg/kg/injection, schedule: Q01DX001 (ip), vehicle: saline.
[12] abbreviates: dose: 400.0 mg/kg/injection, schedule: Q01DX001 (ip), vehicle: saline.
The mark [13] stands for this setting: dose: 100.0 mg/kg/injection, schedule: Q04DX002 (ip), vehicle: Klucel (hydroxypropylcellulose) (HPC).
Setting [14] is: dose: 200.0 mg/kg/injection, schedule: Q04DX002 (ip), vehicle: Klucel (hydroxypropylcellulose) (HPC).
The mark [15] stands for this setting: dose: 400.0 mg/kg/injection, schedule: Q04DX002 (ip), vehicle: Klucel (hydroxypropylcellulose) (HPC).

As for `O=S(=O)(C1CCCCC1)C1CCCC1`, the T/C was 97 % of control under setting [1]; 102 % of control (dose: 100.0 mg/kg/injection, schedule: Q04DX003 (ip), vehicle: Klucel (hydroxypropylcellulose) (HPC)); 100 % of control under setting [2]; 105 % of control (dose: 200.0 mg/kg/injection, schedule: Q04DX003 (ip), vehicle: Klucel (hydroxypropylcellulose) (HPC)); 107 % of control under setting [3]; 107 % of control (dose: 400.0 mg/kg/injection, schedule: Q04DX003 (ip), vehicle: Klucel (hydroxypropylcellulose) (HPC)).
Take `O=C(Nc1cccc(C(F)(F)F)c1)c1cc(C(O)C2CCCCN2)c2cccc(C(F)(F)F)c2n1` (centres undefined): the T/C was 105 % of control under setting [4]; 102 % of control under setting [5]; 97 % of control under setting [6]; 97 % of control under setting [7]; 108 % of control under setting [8]; 97 % of control under setting [9].
In the case of `COc1cc(C[N+]23CC[N+](Cc4cc(OC)c(OC)c(OC)c4)(CC2)C3)cc(OC)c1OC`, the T/C under setting [10] was 101 % of control, the T/C under setting [11] is 98 % of control and the T/C under setting [12] is 95 % of control.
With `CCCCCCCCCC(=O)Nc1ccc(CC)cc1`, the T/C was 94 % of control under setting [13], 101 % of control under setting [14] and 111 % of control under setting [15].
`CC(N)(COC(=O)c1ccccc1)C(=O)O` (centres undefined): the T/C was 107 % of control (dose: 100.0 mg/kg/injection, schedule: Q04DX003 (ip), vehicle: saline); 96 % of control (dose: 200.0 mg/kg/injection, schedule: Q04DX003 (ip), vehicle: saline); 98 % of control (dose: 400.0 mg/kg/injection, schedule: Q04DX003 (ip), vehicle: saline).
For `O=[N+]([O-])c1cccc([N+](=O)[O-])c1Cl`, the T/C is 114 % of control (dose: 100.0 mg/kg/injection, schedule: Q01DX001 (ip), vehicle: carboxymethylcellulose (CMC)); 108 % of control (dose: 200.0 mg/kg/injection, schedule: Q01DX001 (ip), vehicle: carboxymethylcellulose (CMC)); 108 % of control (dose: 400.0 mg/kg/injection, schedule: Q01DX001 (ip), vehicle: carboxymethylcellulose (CMC)).
With `[N-]=[N+]=C1N=C(Cl)N=C1c1ncn[nH]1`, the T/C reads like this: (dose: 25.0 mg/kg/injection, schedule: Q01DX001 (ip), vehicle: Klucel (hydroxypropylcellulose) (HPC)) 97 % of control; (dose: 50.0 mg/kg/injection, schedule: Q01DX001 (ip), vehicle: Klucel (hydroxypropylcellulose) (HPC)) 108 % of control; (dose: 100.0 mg/kg/injection, schedule: Q01DX001 (ip), vehicle: Klucel (hydroxypropylcellulose) (HPC)) 102 % of control and 112 % of control; (dose: 400.0 mg/kg/injection, schedule: Q01DX001 (ip), vehicle: Klucel (hydroxypropylcellulose) (HPC)) 112 % of control.
For the compound `COC(=O)C([CH2][Sn]([c]1ccccc1)([c]1ccccc1)[c]1ccccc1)NC(=O)Cc1ccccc1` (centres undefined), the T/C runs as follows: (dose: 50.0 mg/kg/injection, schedule: Q01DX009 (ip), vehicle: saline) 96 % of control; (dose: 100.0 mg/kg/injection, schedule: Q01DX009 (ip), vehicle: saline) 100 % of control; (dose: 200.0 mg/kg/injection, schedule: Q01DX009 (ip), vehicle: saline) 100 % of control.
Turning to `c1ccc(CNc2ccccc2)cc1`, the T/C is 95 % of control under setting [4]; 94 % of control under setting [5]; 92 % of control under setting [6]; 102 % of control under setting [7]; 100 % of control under setting [8]; 105 % of control under setting [9].
Consider `Cc1ccc(NC(=O)OCCSc2ccc(Cl)cc2)c([N+](=O)[O-])c1`, for which the T/C under setting [13] was 99 % of control, the T/C under setting [14] is 99 % of control and the T/C under setting [15] was 89 % of control.
With `NS(=O)(=O)c1ccc(NC(=O)Nc2cccc(C(F)(F)F)c2)cc1`, the T/C was 97 % of control under setting [1]; 94 % of control under setting [13]; 91 % of control under setting [2]; 91 % of control under setting [14]; 94 % of control under setting [3]; 97 % of control under setting [15].
For the compound `CCCCCCOc1ccc(CC(N)C(=O)O)cc1N(CCCl)CCCl` (centres undefined), the T/C (dose: 2.5 mg/kg/injection, schedule: Q01DX009 (ip), vehicle: carboxymethylcellulose (CMC)) was 119 % of control; the T/C (dose: 4.4 mg/kg/injection, schedule: Q01DX001 (ip), vehicle: carboxymethylcellulose (CMC)) is 109 % of control; the T/C (dose: 6.6 mg/kg/injection, schedule: Q01DX001 (ip), vehicle: carboxymethylcellulose (CMC)) was 115 % of control; the T/C (dose: 8.5 mg/kg/injection, schedule: Q01DX001 (ip), vehicle: carboxymethylcellulose (CMC)) was 117 % of control; the T/C (dose: 10.0 mg/kg/injection, schedule: Q01DX001 (ip), vehicle: carboxymethylcellulose (CMC)) was 110 % of control; the T/C (dose: 13.0 mg/kg/injection, schedule: Q01DX001 (ip), vehicle: carboxymethylcellulose (CMC)) is 117 % of control. Moreover, the T/C (dose: 15.0 mg/kg/injection, schedule: Q01DX001 (ip), vehicle: carboxymethylcellulose (CMC)) is 116 % of control; the T/C (dose: 15.0 mg/kg/injection, schedule: Q01DX009 (ip), vehicle: carboxymethylcellulose (CMC)) is 152 % of control; the T/C (dose: 20.0 mg/kg/injection, schedule: Q01DX001 (ip), vehicle: carboxymethylcellulose (CMC)) is 122 % of control; the T/C (dose: 22.5 mg/kg/injection, schedule: Q01DX009 (ip), vehicle: carboxymethylcellulose (CMC)) was 113 % of control; the T/C (dose: 30.0 mg/kg/injection, schedule: Q01DX001 (ip), vehicle: carboxymethylcellulose (CMC)) is 122 % of control.
For the compound `CCOC(=O)c1ccc(N(CC(O)CN)S(=O)(=O)c2ccc(C)cc2)cc1` (centres undefined), the T/C (dose: 25.0 mg/kg/injection, schedule: Q01DX009 (ip), vehicle: saline with Tween-80) is 100 % of control and the T/C (dose: 50.0 mg/kg/injection, schedule: Q01DX009 (ip), vehicle: saline with Tween-80) is 95 % of control.
Consider `O=C(CCCCC(=O)c1ccc(O)cc1O)c1ccc(O)cc1O`, for which the T/C by setting is: (dose: 100.0 mg/kg/injection, schedule: Q01DX001 (ip), vehicle: other) 97 % of control; (dose: 100.0 mg/kg/injection, schedule: Q04DX003 (ip), vehicle: other) 103 % of control; (dose: 200.0 mg/kg/injection, schedule: Q01DX001 (ip), vehicle: other) 95 % of control; (dose: 200.0 mg/kg/injection, schedule: Q04DX003 (ip), vehicle: other) 100 % of control; (dose: 400.0 mg/kg/injection, schedule: Q01DX001 (ip), vehicle: other) 97 % of control; (dose: 400.0 mg/kg/injection, schedule: Q04DX003 (ip), vehicle: other) 106 % of control.
On to `Nc1nc(=O)n(CCCOc2ccc([N+](=O)[O-])c(Cl)c2)cc1-c1ccc(Cl)c(Cl)c1`, for which the T/C (dose: 25.0 mg/kg/injection, schedule: Q01DX001 (ip), vehicle: saline with Tween-80) is 95 % of control; the T/C (dose: 50.0 mg/kg/injection, schedule: Q01DX001 (ip), vehicle: saline with Tween-80) is 96 % of control; the T/C (dose: 100.0 mg/kg/injection, schedule: Q01DX001 (ip), vehicle: saline with Tween-80) is 88 % of control.
Regarding `O=C(C=C(C(F)(F)F)C(F)(F)F)c1ccccc1[N+](=O)[O-]`, the T/C reads like this: (dose: 6.25 mg/kg/injection, schedule: Q01DX009 (ip), vehicle: other) 96 % of control; (dose: 12.5 mg/kg/injection, schedule: Q01DX009 (ip), vehicle: other) 102 % of control; (dose: 25.0 mg/kg/injection, schedule: Q01DX009 (ip), vehicle: other) 102 % of control.
On to `N#CCC1C(=O)Nc2ccccc21` (centres undefined), for which the T/C was 101 % of control under setting [10], 98 % of control under setting [11] and 101 % of control under setting [12].
